Patent US8778627B2, “Enzyme substrate comprising a functional dye and associated technology and methods” (Biotium, Inc., priority 2006, dated 2014)

Tests used:
calf thymus dsDNA = test: DNA titration of nucleic acid dye-based substrates and controls; format: binding; conditions: 1 μM in pH 7.4 TE buffer, 30-minute incubation at room temperature, excitation 485 nm, emission 530 nm
Method: In this example, nucleic acid dye-based caspase-3 substrates, Substrate No. 19 and Substrate No. 20, and respective control compounds, Compound No. 7 and Compound No. 24, were titrated with varying amounts of calf thymus dsDNA and the fluorescence signals of the solutions were recorded. Briefly, the substrates and the respective controls were prepared as generally described above in relation to Example 51. Multiple wells of a 96-well plate were loaded with the substrate (100 μL, 1 μM) or the respective control (100 μL, 1 μM). Each well was then titrated with 5 μL of one of the seven DNA stock solutions of 2.1, 4.1, 8.2, 16.4, 32.8 65.6 and 127.5 μg/mL concentration, respectively, in pH 7.4 TE buffer. After a 30-minute incubation at room temperature, the fluorescence reading of each well was recorded with a SpectraMax Germini XS fluorescence microplate reader (Molecular Devices Corp., Sunnyvale, Calif.), with the excitation wavelength and the emission collection wavelength set at 485 nm and 530 nm, respectively.
DNA titrations of Compound No. 21, a nucleic acid dye-based HDAC substrate, and Compound No. 23, a control associated with Compound No. 21, were titrated with varying amounts of calf thymus dsDNA in the manner generally described above in relation to Example 52.

calf thymus DNA = test: Measurement of fluorescence spectra in the presence of DNA; format: binding; conditions: 1 μM in pH 7.4 TE buffer, excess calf thymus DNA, excitation 600 nm, FIG. 1
Method: Stock solutions of nucleic acid dye-based substrates and respective control compounds were prepared by dissolving each compound in DMSO at 1 mg/mL concentration. The stock solutions were diluted into a pH 7.4 buffer (TE buffer) comprising Tris (10 mM), EDTA (1 mM) and NaCl (50 mM) to give a final concentration of 1 μM. Dye solutions containing an excess amount of DNA were prepared by adding a sufficient amount of calf thymus DNA calculated to yield a ratio of greater to or equal to 50 DNA base pairs per dye molecule. A fluorescence spectrum for each dye was recorded before and after the addition of DNA using a Jasco F-750 fluorescence spectrophotometer, with the fluorescence excitation wavelength set at λA-25 nm or 600 nm, where λA is the absorption maximum for each dye in the presence or the absence of DNA, and emission collection wavelength set at 660 nm.

[1] = biological target: T1, caspase-3 activity in Jurkat cells (Homo sapiens, UniProt P42574); test: Detection of caspase-3 activity in live cells by flow cytometry; format: cell-based; conditions: for caspase-3-positive cell identification: Jurkat cells, substrate 10 μM for 15 minutes, FL1 channel
T1 construct: A flask of Jurkat cells were induced with staurosporine (1 μM) for apoptosis; endogenous in cells; host or cells: Jurkat cells induced with staurosporine
T1 sequence (P42574 29-175 limits assumed): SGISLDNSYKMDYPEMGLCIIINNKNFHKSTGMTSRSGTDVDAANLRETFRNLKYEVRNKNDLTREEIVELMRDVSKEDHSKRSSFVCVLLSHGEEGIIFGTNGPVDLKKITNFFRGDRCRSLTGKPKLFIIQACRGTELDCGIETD
T1 sequence (P42574 176-277 limits assumed): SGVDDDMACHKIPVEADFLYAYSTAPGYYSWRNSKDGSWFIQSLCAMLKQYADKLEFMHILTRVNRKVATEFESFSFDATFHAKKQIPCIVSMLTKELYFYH
Method: In this example, Jurkat cells were used to test whether Substrate No. 19 may be used to detect caspase-3 activity, or a lack thereof, within live cells by generating a nucleic acid dye that forms fluorescence upon binding to DNA. A flask of Jurkat cells were induced with staurosporine (1 μM) for apoptosis. Aliquots of the induced Jurkat cells were taken at 1 hour, 2.5 hours and 5 hours after induction, respectively, and aliquots of uninduced Jurkat cells, which served as negative controls, were taken at the same times. Substrate No. 19 was added to each Jurkat cell culture medium to give a final concentration of 10 μM and each resulting medium was allowed to incubate for 15 minutes before undergoing flow cytometry analysis using the FL1 channel for green fluorescence. […] For example, a stimulation time of 1 hour, 2.5 hours and 5 hours was associated with a 10%, 80% and 97% caspase-3-positive cell identification, respectively, as may be seen in the representations B, C and D of FIG. 4, respectively. One hour of staurosporine induction was required for Substrate No. 19 to reliably detect the presence of caspase-3-positive cells. Detection of intracellular caspase-3 activity via Substrate No. 19 is possible after only 15 minutes of incubation time, without necessitating cell destruction. Thus, it may be possible to continuously monitor enzymatic activity over more or less the entire course of cellular life via an enzyme substrate such as Substrate No. 19.

[2] = biological target: T1, caspase-3 activity in Jurkat cells; test: Detection of caspase-3 activity in live cells by fluorescence microscopy; format: cell-based; conditions: Jurkat cells induced 4 hours with staurosporine (1 μM), substrate 10 μM for 15 minutes, confocal microscope, FIG. 5
Method: (§1) Substrate No. 19 (10 μM) was incubated for 15 minutes with Jurkat cells that had been induced for 4 hours with staurosporine (1 μM). Separately, Substrate No. 19 (10 μM) was incubated for 15 minutes with uninduced Jurkat cells, which served as a negative control. For each of the cell cultures, cells (1×10^5) were taken, pelleted and then resuspended in Annexin V binding buffer (100 μL; HEPES buffer (10 mM, pH 7.4), NaCl (140 mM) and CaCl2 (2.5 mM)) in a tube, whereupon Texas Red-conjugated Annexin V (5 μL, 50 μg/mL) (Biotium Inc., Hayward, Calif.) was added to each tube. After 15 minutes of incubation at room temperature, a cell culture (5 μL) of the induced cells or the uninduced cells was spotted onto a slide, which was then mounted with a coverslip and sealed with nail polish. The cells were examined with a 510 Meta UV/Vis confocal microscope. […] The green fluorescence is indicative of nuclear DNA staining by the nucleic acid dye that is formed from substrate cleavage via caspase-3. The red fluorescence is indicative of the staining of phosphatidylserine (PS) by the Texas Red-conjugated Annexin V, a fluorescent stain that is used to identify apoptotic cells.

caspase-3 = biological target: T2, caspase-3 (Homo sapiens, UniProt P42574); test: In vitro enzymatic assay for nucleic acid dye-based substrates for caspase-3; format: biochemical; conditions: 10 μM, caspase-3 0.1 unit/mL, salmon sperm dsDNA 3.3 μg/mL, excitation 485 nm, emission 530 nm, FIG. 3
T2 construct: purchased Biovision Inc., Mountain View, Calif
T2 sequence (P42574 29-175 limits assumed): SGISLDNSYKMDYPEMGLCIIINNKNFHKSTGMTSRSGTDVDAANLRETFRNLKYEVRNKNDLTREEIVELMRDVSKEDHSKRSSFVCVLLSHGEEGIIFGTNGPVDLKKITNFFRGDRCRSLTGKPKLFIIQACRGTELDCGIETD
T2 sequence (P42574 176-277 limits assumed): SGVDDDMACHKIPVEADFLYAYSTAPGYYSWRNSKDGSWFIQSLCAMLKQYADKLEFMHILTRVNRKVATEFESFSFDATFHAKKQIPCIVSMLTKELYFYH
Method: In this example, nucleic acid dye-based caspase-3 substrates were assayed in the presence of caspase-3 and dsDNA by monitoring the fluorescence increase. In one example, Substrate No. 19 (10 μM) was incubated with caspase-3 (0.1 unit/mL) (Biovision Inc., Mountain View, Calif.) and salmon sperm dsDNA (3.3 μg/mL) in a caspase assay buffer (100 μL; HEPES buffer (50 mM, pH 7.4), NaCl (100 mM), EDTA (1 mM), CHAPS (0.1%), DTT (10 mM), PMSF (1 mM) and glycerol (10%)) in a well of a black 96-well plate. The plate was then placed in a SpectraMax Germini XS fluorescence microplate reader (Molecular Devices Corp., Sunnyvale, Calif.), with the excitation wavelength set at 485 nm and emission collection wavelength set at 530 nm, to measure the fluorescence signal over time, as shown in FIG. 3.

phosphatidylserine (PS) = test: Texas Red-Annexin V staining of apoptotic Jurkat cells by confocal microscopy; format: cell-based; conditions: Jurkat cells induced 4 hours with staurosporine (1 μM), 15 minutes of incubation at room temperature, confocal microscope, FIG. 5
Method: as §1

C[n+]1c(C=C2C=CN(CCCCCC(=O)NCCN)c3ccccc32)sc2ccccc21 [Compound No. 7]
fluorescence response to dsDNA concentration (DNA titration) (calf thymus dsDNA): fluorescently responsive to the amount of DNA present

C[n+]1c(/C=C/C=C2\C=CN(CCCC(=O)NCCN)c3ccccc32)sc2ccccc21 [Compound No. 24]
fluorescence response to dsDNA concentration (DNA titration) (calf thymus dsDNA): fluorescently responsive to the amount of DNA present
fluorescence emission in the presence of DNA, control versus substrate (calf thymus DNA): substantially more fluorescent than Substrate No. 20

C[n+]1c(/C=C2\C=CN(CCCCCC(=O)NCCNC(=O)C(CCCCN)NC(=O)OC(C)(C)C)c3ccccc32)sc2ccccc21.[I-] (stereo not drawn) [Compound No. 23]
fluorescence response to dsDNA concentration (DNA titration) (calf thymus dsDNA): fluorescently responsive to the amount of DNA present

CC(=O)NCCCCC(NC(=O)OC(C)(C)C)C(=O)NCCNC(=O)CCCCCN1C=C/C(=C\c2sc3ccccc3[n+]2C)c2ccccc21.[I-] (stereo not drawn) [Compound No. 21]
fluorescence response to dsDNA concentration (DNA titration) (calf thymus dsDNA): relatively insensitive to the presence of DNA

CC(=O)N[C@H](CC(=O)O)C(=O)N[C@H](CCC(=O)O)C(=O)N[C@@H](C(=O)N[C@H](CC(=O)O)C(=O)NCCNC(=O)CCCN1C=CC(=CC=Cc2sc3ccccc3[n+]2C)c2ccccc21)C(C)C [Substrate No. 20]
fluorescence response to dsDNA concentration (DNA titration) (calf thymus dsDNA): relatively insensitive to the presence of DNA

CC(=O)N[C@@H](CC(=O)O)C(=O)N[C@@H](CCC(=O)O)C(=O)N[C@H](C(=O)N[C@@H](CC(=O)O)C(=O)NCCNC(=O)CCCCCN1C=CC(=Cc2sc3ccccc3[n+]2C)c2ccccc21)C(C)C [Substrate No. 19]
caspase-3-positive cell identification ([1]; staurosporine (1 μM) stimulation 1 hour): 10%
caspase-3-positive cell identification ([1]; staurosporine (1 μM) stimulation 2.5 hours): 80%
caspase-3-positive cell identification ([1]; staurosporine (1 μM) stimulation 5 hours): 97%
staurosporine induction required to reliably detect caspase-3-positive cells ([1]; live Jurkat cells, staurosporine 1 μM, substrate 10 μM): One
incubation time after which detection of intracellular caspase-3 activity is possible ([1]; live Jurkat cells, without cell destruction): 15 min
fluorescence response to dsDNA concentration (DNA titration) (calf thymus dsDNA): relatively insensitive to the presence of DNA
fluorescent staining pattern of cells [2]: green fluorescence in cellular nuclei
fluorescence increase over time with caspase-3 and dsDNA (caspase-3): substrate for caspase-3 enzyme

B1: Texas Red-conjugated Annexin V: fluorescent stain (Biotium Inc.) that is used to identify apoptotic cells by staining phosphatidylserine (conjugate, UniProt P08758 2-320, looked up)
Annexin A5: AQVLRGTVTDFPGFDERADAETLRKAMKGLGTDEESILTLLTSRSNAQRQEISAAFKTLFGRDLLDDLKSELTGKFEKLIVALMKPSRLYDAYELKHALKGAGTNEKVLTEIIASRTPEELRAIKQVYEEEYGSSLEDDVVGDTSGYYQRMLVVLLQANRDPDAGIDEAQVEQDAQALFQAGELKWGTDEEKFITIFGTRSVSHLRKVFDKYMTISGFQIEETIDRETSGNLEQLLLAVVKSIRSIPAYLAETLYYAMKGAGTDDHTLIRVMVSRSEIDLFNIRKEFRKNFATSLYSMIKGDTSGDYKKALLLLCGEDD
modifications: Texas Red dye
notes: fluorescent stain (Biotium Inc.) that is used to identify apoptotic cells by staining phosphatidylserine
fluorescent staining pattern of cells (phosphatidylserine (PS)): red fluorescence on a cytoplasmic membrane
